Measurements published in patent US8487098B2, “Synergistic combination of flumetsulam or diclosulam with isothiazolones” (Dow Global Technologies LLC, priority 2010, dated 2013).

What was measured:
Type in all cases: cell-based
Conditions in all cases: 4 weeks; for % inhibition: at the total conc given; for Total conc, ppm: minimum inhibitory concentration in paint
[1] = test system: Gloeocapsa sp. and Oscillatoria sp. (Gs + Os); assay: Algal efficacy testing, modified ASTM 5589, paint film
Method: (§1) A single or blend of biocides was post added into white acrylic latex paint free of biocides to give a maximum total active ingredient/s concentration tested. This paint was then diluted with a biocide free acrylic latex paint to give targeted concentrations for the testing. Depending on the type of biocide blends tested, the total biocides concentrations varies from 200 to 5000 ppm. After biocides addition or dilution, each sample was hand mixed for at least a minute until uniformity is achieved. Each of the paint samples as well as a control sample (containing no biocide) were used to prepare films on black plastic-vinyl chloride/acetate copolymer panels (LENETA, Mahwah, N.J.) using a 3 mil (0.0762 mm) bird bar applicator. The panels were thoroughly dried for at least 2 days avoiding direct exposure to sunlight. Square discs (0.5 inch; 1.27 cm^2) were cut out from each panel and were used as the substrate for fungal and algal efficacy tests. This sample size allowed for an agar border when the sample disc was placed into the well of the test plate. Each sample was tested in duplicate
(§2) The appropriate media (BOLD'S 3N for Chlorophytes, BG-11 for Cyanobacteria, and PDA for fungi) were used to support microbial growth. The test plates were maintained at room temp (25° C.-26° C.), in a cycled light-dark environment, for four weeks for algae. Plates for fungal challenge tests were maintained at 30 C for four weeks. At the end of the incubation period the samples were scored for percent area covered by visible microbial growth.
(§3) Algal Efficacy Testing—Modified ASTM 5589
(§4) ASTM 5589 is a standard accelerated test method for determining resistance of various coatings (including paints) to algal defacement. To accommodate for high-throughput screening, this method was scaled down from petri plates to 6-well plates. A single coupon was placed with a pair of sterile forceps at the center of the agar plug (on top) with the painted surface facing upwards. Algal inoculums were prepared by mixing equal concentrations (1×10^6 cfu/ml) and equal volumes (depending on number of samples to be inoculated) of like growing organisms.
(§5) In Flumetsulam+various IT synergy study, three pool of mixed algae were prepared as the test inoculum, Gloeocapsa sp. and Oscillatoria sp. a mix of cyanobacteria grown on BG-11 media; Chlorella sp., Chlorella kessleri, and Nostoc commune are unicellular chlorphytes that were mixed and grown on Bold media; Trentepohlia aurea, Tretepohlia odorata, and Calotrix parientina are filamentous algae that were mixed and grown on Bold media.
(§6) In Diclosulam+various IT synergy study, only two pools of mixed algae were prepared; Gloeocapsa sp. and Oscillatoria sp. grown on BG-11 media and Chlorella sp., Chlorella kessleri, Nostoc commune, Trentepohlia aurea, Tretepohlia odorata, and Calotrix parientina grown on Bold media
(§7) Each well that contains a tested coupon was inoculated with 400 μl of organism mixture (1×10^6 cfu/ml) making sure that the whole surface (paint film as well as the agar surrounding it) was evenly covered. The plates were incubated at room temp (25° C.-26° C.) with cyclic exposure to light (OTT-Lite model #OTL4012P, 40 Watt, 26 KLumen) and dark phases, for a period of four weeks. The total area covered was evaluated at the end of each week according to percent area covered in 5% increments.
(§8) Synergy Index Calculation
(§9) The SI is calculated based on F. C. Kull et.
(§10) Qa=the concentration of Biocide A in the blend
(§11) QA=The concentration of Biocide A as the only biocide
(§12) Qb=The concentration of Biocide B in the blend
(§13) QB=The concentration of Biocide B as the only biocide
(§14) SI value of <1 in the formula indicates a synergism of the blended biocides exists.
(§15) NE=no end point at the concentration tested that will meet the percent inhibition criteria set in each SI calculation

[2] = test system: Aa + Tv + An + Pf + Ap + Ch; assay: Fungal efficacy testing, modified ASTM 5590, paint film, single pool of all fungi
Method: as §1, §2
(§16) Fungal Efficacy Testing—Modified ASTM 5590
(§17) ASTM 5590 is a standard accelerated test method for determining resistance of various coatings (including paints) to fungal defacement. To accommodate for high-throughput screening, this method was scaled down from petri plates to 6-well plates. To set up the test, an agar plug was placed at the bottom of each well of the sterile 6-well plate. A single coupon was placed with a pair of sterile forceps at the center of the agar plug (on top) with the painted surface facing upwards. Fungal inoculums were prepared by mixing equal concentrations (1×10^6 cfu/ml) and equal volumes (depending on number of samples to be tested) of like growing organisms. For Flumetsulam+various IT synergy study, three pools of mixed fungi were prepared as the test inoculum. Cladosporium herbarum was mixed with Aureobasidium pullulans; Aspergillus niger was mixed with Penicillium funiculosum and Alternaria alternata was mixed with Trichoderma viride. For Diclosulam+various IT synergy study, all above fungi were mixed as a single pool. Each well was inoculated with 400 μl of organism mixture (1×10^6 cfu/ml) making sure that the whole surface (paint film as well as the agar surrounding it) was evenly covered. The plates were incubated at 30° C. in presence of moisture, for a period of four weeks. The total percent area covered was evaluated and recorded at the end of each week after the 2nd week and recorded in increments of 5%.
as §8, §9, §10, §11, §12, §13, §14, §15

[3] = test system: Cp + To + Ta + Cs + Ck + Nc; assay: Algal efficacy testing, modified ASTM 5589, paint film, pool grown on Bold media
Method: as §1, §2, §3, §4, §6, §7, §8, §9, §10, §11, §12, §13, §14, §15

[4] = test system: Alternaria alternata mixed with Trichoderma viride (AaTv); assay: Fungal efficacy testing, modified ASTM 5590, paint film
Method: as §1, §2, §16, §17, §8, §9, §10, §11, §12, §13, §14, §15

[5] = test system: Aspergillus niger mixed with Penicillium funiculosum (AnPf); assay: as above
Method: as §1, §2, §16, §17, §8, §9, §10, §11, §12, §13, §14, §15

[6] = test system: Cladosporium herbarum mixed with Aureobasidium pullulans (ApCh); assay: as above
Method: as §1, §2, §16, §17, §8, §9, §10, §11, §12, §13, §14, §15

[7] = test system: Chlorella sp., Chlorella kessleri, and Nostoc commune (Cs + Ck + Nc); assay: Algal efficacy testing, modified ASTM 5589, paint film
Method: as §1, §2, §3, §4, §5, §7, §8, §9, §10, §11, §12, §13, §14, §15

[8] = test system: Trentepohlia aurea, Tretepohlia odorata, and Calotrix parientina (Cp + To + Ta); assay: as above
Method: as §1, §2, §3, §4, §5, §7, §8, §9, §10, §11, §12, §13, §14, §15

[9] = Synergy study of Diclosulam and DCOIT
[10] = Synergy study of Diclosulam+OIT
[11] = Flumetsulam:BBIT synergy study, NE=no end point
[12] = Flumetsulam:DCOIT synergy study

SMILES: CCOc1nc(F)cc2nc(S(=O)(=O)Nc3c(Cl)cccc3Cl)nn12 [Diclosulam, N-(2,6-dichlorophenyl)-5-ethoxy-7-fluoro[1,2,4]triazolo[1,5-c]pyrimidine-2-sulfonamide]
- % inhibition [1, 9]: 100%
- Total conc, ppm [1, 9]: 437.5 ppm
- % inhibition [1, 10]: 100%
- Total conc, ppm [1, 10]: 437.5 ppm
- % inhibition [2, 9]: 40%
- Total conc, ppm [2, 9]: 3500 ppm
- % inhibition [2, 10]: 0%
- Total conc, ppm [2, 10]: 3500 ppm
- % inhibition [3, 9]: 100%
- Total conc, ppm [3, 9]: 437.5 ppm
- % inhibition [3, 10]: 100%
- Total conc, ppm [3, 10]: 437.5 ppm

SMILES: Cc1ccn2nc(S(=O)(=O)Nc3c(F)cccc3F)nc2n1 [Flumetsulam, N-(2,6-difluorophenyl)-5-methyl[1,2,4]triazolo[1,5-a]pyrimidine-2-sulfonamide]
- % inhibition ([4]; Flumetsulam:BBIT synergy study): 0%
- Total conc, ppm [4, 11]: 3500 ppm
- % inhibition [4, 12]: 0%
- Total conc, ppm [4, 12]: 3500 ppm
- % inhibition ([4]; Flumetsulam:OIT synergy study): 0%
- Total conc, ppm ([4]; Flumetsulam:OIT synergy study): 3500 ppm
- % inhibition ([5]; Flumetsulam:BBIT synergy study): 0%
- Total conc, ppm ([5]; Flumetsulam:BBIT synergy study): 3500 ppm
- % inhibition [5, 12]: 0%
- Total conc, ppm [5, 12]: 3500 ppm
- % inhibition ([5]; Flumetsulam:OIT synergy study): 65%
- Total conc, ppm ([5]; Flumetsulam:OIT synergy study): 3500 ppm
- % inhibition ([6]; Flumetsulam:BBIT synergy study): 0%
- Total conc, ppm [6, 11]: 3500 ppm
- % inhibition [6, 12]: 90%
- Total conc, ppm [6, 12]: 3500 ppm
- % inhibition ([6]; Flumetsulam:OIT synergy study): 0%
- Total conc, ppm ([6]; Flumetsulam:OIT synergy study): 3500 ppm
- % inhibition ([7]; Flumetsulam:BBIT synergy study): 0%
- Total conc, ppm ([7]; Flumetsulam:BBIT synergy study): 3500 ppm
- % inhibition [7, 12]: 100%
- Total conc, ppm [7, 12]: 1750 ppm
- % inhibition ([7]; Flumetsulam:OIT synergy study): 65%
- Total conc, ppm ([7]; Flumetsulam:OIT synergy study): 2625 ppm
- % inhibition ([8]; Flumetsulam:BBIT synergy study): 0%
- Total conc, ppm [8, 11]: 3500 ppm
- % inhibition [8, 12]: 95%
- Total conc, ppm [8, 12]: 437.5 ppm
- % inhibition ([8]; Flumetsulam:OIT synergy study): 60%
- Total conc, ppm ([8]; Flumetsulam:OIT synergy study): 437.5 ppm
- % inhibition ([1]; Flumetsulam:BBIT synergy study): 0%
- Total conc, ppm ([1]; Flumetsulam:BBIT synergy study): 3500 ppm
- % inhibition [1, 12]: 100%
- Total conc, ppm [1, 12]: 2625 ppm
- % inhibition ([1]; Flumetsulam:OIT synergy study): 90%
- Total conc, ppm ([1]; Flumetsulam:OIT synergy study): 437.5 ppm

SMILES: CCCCCCCCn1sccc1=O [OIT, 2-n-octyl-4-isothiazolin-3-one]
- % inhibition ([4]; Flumetsulam:OIT synergy study): 100%
- Total conc, ppm ([4]; Flumetsulam:OIT synergy study): 900 ppm
- % inhibition ([5]; Flumetsulam:OIT synergy study): 100%
- Total conc, ppm ([5]; Flumetsulam:OIT synergy study): 450 ppm
- % inhibition ([6]; Flumetsulam:OIT synergy study): 80%
- Total conc, ppm ([6]; Flumetsulam:OIT synergy study): 900 ppm
- % inhibition ([7]; Flumetsulam:OIT synergy study): 100%
- Total conc, ppm ([7]; Flumetsulam:OIT synergy study): 450 ppm
- % inhibition ([8]; Flumetsulam:OIT synergy study): 100%
- Total conc, ppm ([8]; Flumetsulam:OIT synergy study): 450 ppm
- % inhibition ([1]; Flumetsulam:OIT synergy study): 100%
- Total conc, ppm ([1]; Flumetsulam:OIT synergy study): 450 ppm
- % inhibition [1, 10]: 100%
- Total conc, ppm [1, 10]: 900 ppm
- % inhibition [2, 10]: 100%
- Total conc, ppm [2, 10]: 450 ppm
- % inhibition [3, 10]: 100%
- Total conc, ppm [3, 10]: 900 ppm

SMILES: CCCCn1sc2ccccc2c1=O [BBIT, N-n-butyl-1,2-benzisothiazolin-3-one]
- % inhibition ([4]; Flumetsulam:BBIT synergy study): 0%
- Total conc, ppm [4, 11]: 1150 ppm
- % inhibition ([5]; Flumetsulam:BBIT synergy study): 0%
- Total conc, ppm ([5]; Flumetsulam:BBIT synergy study): 1150 ppm
- % inhibition ([6]; Flumetsulam:BBIT synergy study): 80%
- Total conc, ppm [6, 11]: 575 ppm
- % inhibition ([7]; Flumetsulam:BBIT synergy study): 0%
- Total conc, ppm ([7]; Flumetsulam:BBIT synergy study): 1150 ppm
- % inhibition ([8]; Flumetsulam:BBIT synergy study): 0%
- Total conc, ppm [8, 11]: 1150 ppm
- % inhibition ([1]; Flumetsulam:BBIT synergy study): 0%
- Total conc, ppm ([1]; Flumetsulam:BBIT synergy study): 1150 ppm

SMILES: CCCCCCCCn1sc(Cl)c(Cl)c1=O [DCOIT, 4,5-dichloro-2-n-octyl-4-isothiazolin-3-one]
- % inhibition [4, 12]: 85%
- Total conc, ppm [4, 12]: 575 ppm
- % inhibition [5, 12]: 100%
- Total conc, ppm [5, 12]: 575 ppm
- % inhibition [6, 12]: 100%
- Total conc, ppm [6, 12]: 862.5 ppm
- % inhibition [7, 12]: 100%
- Total conc, ppm [7, 12]: 1150 ppm
- % inhibition [8, 12]: 100%
- Total conc, ppm [8, 12]: 143.75 ppm
- % inhibition [1, 12]: 100%
- Total conc, ppm [1, 12]: 143.75 ppm
- % inhibition [1, 9]: 100%
- Total conc, ppm [1, 9]: 625 ppm
- % inhibition [2, 9]: 80%
- Total conc, ppm [2, 9]: 625 ppm
- % inhibition [3, 9]: 100%
- Total conc, ppm [3, 9]: 625 ppm
